Assay results taken from patent US12466846B2, “Siloxane derivatives of amino acids having surface-active properties” (AdvanSix Resins & Chemicals LLC, priority 2022, dated 2025).

Test: Critical micelle concentration and minimum surface tension from surface tension versus concentration in water, Wilhelmy plate method
Assay type: physicochemical
Details: for plateau value of minimum surface tension that can be reached: in water, Wilhelmy plate, 23° C.; for interfacial / surfactant activity (in words): judged from the plateau minimum surface tension and CMC in water
Text: These properties may be measured and described by various methods. One method by which surfactants may be described is by the molecule's critical micelle concentration (CMC). CMC may be defined as the concentration of a surfactant at which micelles form, and above which all additional surfactant is incorporated into micelles.
As surfactant concentration increases, surface tension decreases. Once the surface is completely overlaid with surfactant molecules, micelles begin to form. This point represents the CMC, as well as the minimum surface tension. Further addition of surfactant will not further affect the surface tension. CMC may therefore be measured by observing the change in surface tension as a function of surfactant concentration. One such method for measuring this value is the Wilhemy plate method. A Wilhelmy plate is usually a thin iridium-platinum plate attached to a balance by a wire and placed perpendicularly to the air-liquid interface. The balance is used to measure the force exerted on the plate by wetting. This value is then used to calculate the surface tension (γ) according to Equation 1: γ=F/l cos θ: Equation 1 wherein I is equal to the wetted perimeter (2w+2d, in which w and d are the plate thickness and width, respectively) and cos θ, the contact angle between the liquid and the plate, is assumed to be […] in the absence of an extant literature value.
Nuclear magnetic resonance (NMR) spectroscopy was performed on a Bruker 500 MHz spectrometer. The critical micelle concentration (CMC) was determined by the Wilhelmy plate method at 23° C. with a tensiometer (DCAT 11, DataPhysics Instruments GmbH) equipped with a Pt—Ir plate. Dynamic surface tension was determined with a bubble pressure tensiometer (Krüss BP100, Krüss GmbH), at 23° C. Contact angle was determined with the optical contact angle goniometer (OCA 15 Pro, DataPhysics GmbH) equipped with a digital camera.

Row | SMILES | plateau value of minimum surface tension that can be reached | interfacial / surfactant activity (in words)
1 | C[N+](C)(CCCCCC(=O)NCCC[Si](O[Si](C)(C)C)(O[Si](C)(C)C)O[Si](C)(C)C)Cc1ccccc1 [Surfactant 1, N-benzyl-6-((3-(1,1,1,5,5,5-hexamethyl-3-((trimethylsilyl)oxy)trisiloxan-3-yl)propyl)amino)-N,N-dimethyl-6-oxohexan-1-aminium bromide] | around 20.67 mN/m | outstanding interfacial activity
2 | CCOC(=O)C[N+](C)(C)CCCCCC(=O)NCCC[Si](O[Si](C)(C)C)(O[Si](C)(C)C)O[Si](C)(C)C [Surfactant 2, N-(2-ethoxy-2-oxoethyl)-6-((3-(1,1,1,5,5,5-hexamethyl-3-((trimethylsilyl)oxy)trisiloxan-3-yl)propyl)amino)-N,N-dimethyl-6-oxohexan-1-aminium bromide] | around 20.36 mN/m | outstanding interfacial activity
3 | C=CC[N+](C)(C)CCCCCC(=O)NCCC[Si](O[Si](C)(C)C)(O[Si](C)(C)C)O[Si](C)(C)C [Surfactant 3, N-allyl-6-((3-(1,1,1,5,5,5-hexamethyl-3-((trimethylsilyl)oxy)trisiloxan-3-yl)propyl)amino)-N,N-dimethyl-6-oxohexan-1-aminium iodide] | about 20.67 mN/m | outstanding interfacial activity
4 | C#CC[N+](C)(C)CCCCCC(=O)NCCC[Si](O[Si](C)(C)C)(O[Si](C)(C)C)O[Si](C)(C)C [Surfactant 4, 6-((3-(1,1,1,5,5,5-hexamethyl-3-((trimethylsilyl)oxy)trisiloxan-3-yl)propyl)amino)-N,N-dimethyl-6-oxo-N-(prop-2-yn-1-yl)hexan-1-aminium bromide] | about 20.54 mN/m | outstanding interfacial activity
5 | COCCOCC[N+](C)(C)CCCCCC(=O)NCCC[Si](O[Si](C)(C)C)(O[Si](C)(C)C)O[Si](C)(C)C [Surfactant 5, 6-((3-(1,1,1,5,5,5-hexamethyl-3-((trimethylsilyl)oxy)trisiloxan-3-yl)propyl)amino)-N-(2-(2-methoxyethoxy)ethyl)-N,N-dimethyl-6-oxohexan-1-aminium bromide] | about 20.40 mN/m | outstanding interfacial activity
6 | CCOP(=O)(CCC[N+](C)(C)CCCCCC(=O)NCCC[Si](O[Si](C)(C)C)(O[Si](C)(C)C)O[Si](C)(C)C)OCC [Surfactant 6, N-(3-(diethoxyphosphoryl)propyl)-6-((3-(1,1,1,5,5,5-hexamethyl-3-((trimethylsilyl)oxy)trisiloxan-3-yl)propyl)amino)-N,N-dimethyl-6-oxohexan-1-aminium bromide] | about 20.48 mN/m | outstanding interfacial activity
7 | C[N+](C)(CCCO)CCCCCC(=O)NCCC[Si](O[Si](C)(C)C)(O[Si](C)(C)C)O[Si](C)(C)C [Surfactant 7, 6-((3-(1,1,1,5,5,5-hexamethyl-3-((trimethylsilyl)oxy)trisiloxan-3-yl)propyl)amino)-N-(3-hydroxypropyl)-N,N-dimethyl-6-oxohexan-1-aminium iodide] | about 20.61 mN/m | outstanding interfacial activity
8 | C[N+](C)(CCO)CCCCCC(=O)NCCC[Si](O[Si](C)(C)C)(O[Si](C)(C)C)O[Si](C)(C)C [Surfactant 8, 6-((3-(1,1,1,5,5,5-hexamethyl-3-((trimethylsilyl)oxy)trisiloxan-3-yl)propyl)amino)-N-(2-hydroxyethyl)-N,N-dimethyl-6-oxohexan-1-aminium iodide] | about 20.41 mN/m | outstanding interfacial activity
9 | C[N+](C)(CCCCCC(=O)O)CCCCCC(=O)NCCC[Si](O[Si](C)(C)C)(O[Si](C)(C)C)O[Si](C)(C)C [Surfactant 9a, N-(5-carboxypentyl)-6-((3-(1,1,1,5,5,5-hexamethyl-3-((trimethylsilyl)oxy)trisiloxan-3-yl)propyl)amino)-N,N-dimethyl-6-oxohexan-1-aminium bromide] | about 20.52 mN/m | –
10 | C[N+](C)(CCCCCC(=O)NCCC[Si](O[Si](C)(C)C)(O[Si](C)(C)C)O[Si](C)(C)C)CC(=O)O [Surfactant 9b, N-(carboxymethyl)-6-((3-(1,1,1,5,5,5-hexamethyl-3-((trimethylsilyl)oxy)trisiloxan-3-yl)propyl)amino)-N,N-dimethyl-6-oxohexan-1-aminium bromide] | about 29.16 mN/m | excellent activity
11 | C[N+](C)(CCCCCC(=O)NCCC[Si](O[Si](C)(C)C)(O[Si](C)(C)C)O[Si](C)(C)C)CCC[N+](C)(C)CCCCCC(=O)NCCC[Si](O[Si](C)(C)C)(O[Si](C)(C)C)O[Si](C)(C)C [Surfactant 10, N^1,N^3-bis(6-((3-(1,1,1,5,5,5-hexamethyl-3-((trimethylsilyl)oxy)trisiloxan-3-yl)propyl)amino)-6-oxohexyl)-N^1,N^1,N^3,N^3-tetramethylpropane-1,3-diaminium dibromide] | about 22.12 mN/m | interfacial activity
